Experimental data from ChEMBL document CHEMBL1129582, “Lipophilic, acid-stable, adenosine deaminase-activated anti-HIV prodrugs for central nervous system delivery. 3. 6-Amino prodrugs of 2'-beta-fluoro-2',3'-dideoxyinosine” (J Med Chem, 1996).

Key:
[1] = Anti-HIV activity by using phytohemagglutininin-stimulated peripheral blood mononuclear cell(PHA/PBM) test system; type: functional; conditions: Homo sapiens
[2] = Partition coefficient (logP); type: physicochemical; conditions: octanol/water

Work on `OCC1CC(F)C(n2cnc3c(F)ncnc32)O1` (centres undefined) yielded an IC50 [1] greater than 5 µM.
For `OCC1CC(F)C(n2cnc3c(Cl)ncnc32)O1` (centres undefined), the IC50 [1] was 5.9 µM.
Work on `OCC1CC(F)C(n2cnc3c(NO)ncnc32)O1` (centres undefined) yielded an IC50 [1] of 6.8 µM and a logP [2] of -0.983.
Molecule `OCC1CC(F)C(n2cnc3c(NOCc4ccccc4)ncnc32)O1` (centres undefined) has an IC50 [1] greater than 80 µM and a logP [2] of 1.25.
Molecule `CONc1ncnc2c1ncn2C1OC(CO)CC1F` (centres undefined) has an IC50 [1] greater than 80 µM and a logP [2] of -0.414.
`CNc1ncnc2c1ncn2C1OC(CO)CC1F` (centres undefined) showed an IC50 [1] of 13.1 µM.
For `OCC1CC(F)C(n2cnc3c(O)ncnc32)O1` (centres undefined), the IC50 [1] was 6.3 µM.
Work on `CN(C)c1ncnc2c1ncn2C1OC(CO)CC1F` (centres undefined) yielded an IC50 [1] of 18 µM and a logP [2] of 0.797.
Work on `O=[N+]([O-])c1ncnc2c1ncn2C1OC(CO)CC1F` (centres undefined) yielded an IC50 [1] of 9.6 µM and a logP [2] of -0.395.
`CCNc1ncnc2c1ncn2C1OC(CO)CC1F` (centres undefined) gave an IC50 [1] of 11.1 µM and a logP [2] of 0.779.
Molecule `NNc1ncnc2c1ncn2C1OC(CO)CC1F` (centres undefined) has an IC50 [1] of 36.3 µM.
`O=c1[nH]cnc2c1ncn2[C@H]1CC[C@@H](CO)O1` [DIDANOSINE] gave an IC50 [1] of 0.3 µM.
In the case of `Nc1ncnc2c1ncn2[C@@H]1O[C@H](CO)C[C@@H]1F` [LODENOSINE], the IC50 [1] is reported as 3.3 µM.
